Test results taken from patent US8168592B2 (Amgen Inc., priority 2005, dated 2012).
Bridge positions count the residues as written; N and C are the ends. Square brackets hold non-standard residues; d marks the D form. Peptide text beside a SMILES is read from it. hArg = N=C(N)NCCCC[C@H](N)C(=O)O; Cit = NC(=O)NCCC[C@H](N)C(=O)O

target: T1, CGRP1 receptor (Homo sapiens, UniProt O60894+Q16602); assay: in vitro CGRP1 receptor mediated cAMP assay in SK-N-MC cells; assay type: cell-based; conditions: Peptide IC50, Table 2C; unconjugated peptide
T1 construct: SK-N-MC cells express CRLR and RAMP1, which form CGRP1 receptor; endogenous in cells; host or cells: SK-N-MC human neuroblastoma cells
T1 sequence (Q16602 23-461): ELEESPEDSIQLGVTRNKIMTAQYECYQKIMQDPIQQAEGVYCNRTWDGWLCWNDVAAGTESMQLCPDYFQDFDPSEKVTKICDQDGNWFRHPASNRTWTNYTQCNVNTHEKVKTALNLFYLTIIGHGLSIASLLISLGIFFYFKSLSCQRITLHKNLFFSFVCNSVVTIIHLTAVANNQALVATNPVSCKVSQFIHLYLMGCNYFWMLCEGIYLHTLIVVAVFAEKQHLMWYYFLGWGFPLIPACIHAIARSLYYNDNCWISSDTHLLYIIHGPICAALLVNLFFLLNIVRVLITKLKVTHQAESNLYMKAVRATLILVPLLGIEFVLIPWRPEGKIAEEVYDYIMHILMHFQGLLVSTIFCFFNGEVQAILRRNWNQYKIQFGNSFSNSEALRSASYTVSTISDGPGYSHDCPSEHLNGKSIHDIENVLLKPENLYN
T1 sequence (O60894 27-148): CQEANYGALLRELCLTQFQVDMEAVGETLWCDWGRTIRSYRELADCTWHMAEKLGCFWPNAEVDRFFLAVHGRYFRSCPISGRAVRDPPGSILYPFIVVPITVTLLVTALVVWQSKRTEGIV
Summary of the method: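 Intracellular cAMP served as the Gs-coupled CGRP1 readout in endogenously expressing SK-N-MC cells. After a 15-minute room-temperature step in plasma-free medium, cell lysates (30 minutes, 37° C) went into a competitive ELISA with a cAMP-AP conjugate and anti-cAMP antibody for 1 hour, then a 30-minute substrate enhancer step before reading.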

| SMILES | IC50 [nM] |
| --- | --- |
| CC(=O)N[C@@H](Cc1c[nH]c2ccccc12)C(=O)N[C@H](C(=O)N[C@H]1CCC(=O)NCCCC[C@@H](C(=O)NCC(=O)N[C@@H](CC(C)C)C(=O)N[C@@H](CC(C)C)C(=O)N[C@@H](CO)C(=O)N[C@@H](CCCNC(N)=O)C(=O)N[C@@H](CO)C(=O)NCC(=O)NCC(=O)N[C@H](C(=O)N[C@H](C(=O)N[C@@H](CCCNC(=N)N)C(=O)N[C@@H](CCCCN)C(=O)N[C@@H](CC(N)=O)C(=O)N[C@@H](Cc2ccccc2)C(=O)N[C@H](C(=O)N2CCC[C@H]2C(=O)N[C@H](C(=O)N[C@@H](CC(=O)O)C(=O)N[C@H](C(=O)NCC(=O)N2CCC[C@H]2C(=O)N[C@@H](Cc2ccccc2)C(=O)N[C@@H](C)C(=O)N[C@@H](Cc2ccccc2)C(N)=O)C(C)C)[C@@H](C)O)C(C)C)C(C)C)C(C)C)NC(=O)[C@H](CC(C)C)NC(=O)[C@H](CCCNC(=N)N)NC(=O)[C@H](Cc2c[nH]cn2)NC1=O)C(C)C [compound 893] (Ac-WVEHRLKGLLS[Cit]SGGVVRKNFVPTDVGPFAF-NH2; lactam 3-7) | 1.64 |
| CC(=O)N[C@@H](Cc1c[nH]c2ccccc12)C(=O)N[C@H](C(=O)N[C@H]1CCC(=O)NCCCC[C@@H](C(=O)NCC(=O)N[C@@H](CC(C)C)C(=O)N[C@@H](CC(C)C)C(=O)N[C@@H](CO)C(=O)N[C@@H](CCCCNC(=N)N)C(=O)N[C@@H](CO)C(=O)NCC(=O)NCC(=O)N[C@H](C(=O)N[C@H](C(=O)N[C@@H](CCCCNC(=N)N)C(=O)N[C@@H](CCCCN)C(=O)N[C@@H](CC(N)=O)C(=O)N[C@@H](Cc2ccccc2)C(=O)N[C@H](C(=O)N2CCC[C@H]2C(=O)N[C@H](C(=O)N[C@@H](CC(=O)O)C(=O)N[C@H](C(=O)NCC(=O)N2CCC[C@H]2C(=O)N[C@@H](Cc2ccccc2)C(=O)N[C@@H](C)C(=O)N[C@@H](Cc2ccccc2)C(N)=O)C(C)C)[C@@H](C)O)C(C)C)C(C)C)C(C)C)NC(=O)[C@H](CC(C)C)NC(=O)[C@H](CCCNC(=N)N)NC(=O)[C@H](Cc2c[nH]cn2)NC1=O)C(C)C [compound 905] (Ac-WVEHRLKGLLS[hArg]SGGVV[hArg]KNFVPTDVGPFAF-NH2; lactam 3-7) | 1.7 |
| CC(=O)N[C@@H](Cc1c[nH]c2ccccc12)C(=O)N[C@H](C(=O)N[C@H]1CCC(=O)NCCCC[C@@H](C(=O)NCC(=O)N[C@@H](CC(C)C)C(=O)N[C@@H](CC(C)C)C(=O)N[C@@H](CO)C(=O)N[C@@H](CCCNC(N)=O)C(=O)N[C@@H](CO)C(=O)NCC(=O)NCC(=O)N[C@H](C(=O)N[C@H](C(=O)N[C@@H](CCCCNC(=N)N)C(=O)N[C@@H](CCCCN)C(=O)N[C@@H](CC(N)=O)C(=O)N[C@@H](Cc2ccccc2)C(=O)N[C@H](C(=O)N2CCC[C@H]2C(=O)N[C@H](C(=O)N[C@@H](CC(=O)O)C(=O)N[C@H](C(=O)NCC(=O)N2CCC[C@H]2C(=O)N[C@@H](Cc2ccccc2)C(=O)N[C@@H](C)C(=O)N[C@@H](Cc2ccccc2)C(N)=O)C(C)C)[C@@H](C)O)C(C)C)C(C)C)C(C)C)NC(=O)[C@H](CC(C)C)NC(=O)[C@H](CCCNC(=N)N)NC(=O)[C@H](Cc2c[nH]cn2)NC1=O)C(C)C [compound 906] (Ac-WVEHRLKGLLS[Cit]SGGVV[hArg]KNFVPTDVGPFAF-NH2; lactam 3-7) | 1.15 |

same assay, conditions: Table 2C; unconjugated peptide; read-out: Peptide IC50

| IC50 [nM] | SMILES |
| --- | --- |
| 1.42 | CC(=O)N[C@@H](Cc1c[nH]c2ccccc12)C(=O)N[C@H](C(=O)N[C@H](C(=O)N[C@@H](Cc1c[nH]cn1)C(=O)N[C@@H](CCC(N)=O)C(=O)N[C@@H](CC(C)C)C(=O)N[C@@H](C)C(=O)NCC(=O)N[C@@H](CC(C)C)C(=O)N[C@@H](CC(C)C)C(=O)N[C@@H](CO)C(=O)N[C@@H](CCC(N)=O)C(=O)N[C@@H](CO)C(=O)NCC(=O)NCC(=O)N[C@H](C(=O)N[C@H](C(=O)N[C@@H](CCCCNC(=N)N)C(=O)N[C@@H](CCCCN)C(=O)N[C@@H](CC(N)=O)C(=O)N[C@@H](Cc1ccccc1)C(=O)N[C@H](C(=O)N1CCC[C@H]1C(=O)N[C@H](C(=O)N[C@@H](CC(=O)O)C(=O)N[C@H](C(=O)NCC(=O)N1CCC[C@H]1C(=O)N[C@@H](Cc1ccccc1)C(=O)N[C@@H](C)C(=O)N[C@@H](Cc1ccccc1)C(N)=O)C(C)C)[C@@H](C)O)C(C)C)C(C)C)C(C)C)[C@@H](C)O)C(C)C [compound 885] (Ac-WVTHQLAGLLSQSGGVV[hArg]KNFVPTDVGPFAF-NH2) |
| 0.49 | CC(=O)N[C@@H](Cc1c[nH]c2ccccc12)C(=O)N[C@H](C(=O)N[C@H]1CCC(=O)NCCCC[C@@H](C(=O)NCC(=O)N[C@H]2CCC(=O)NCCCC[C@@H](C(=O)NCC(=O)NCC(=O)N[C@H](C(=O)N[C@H](C(=O)N[C@@H](CCCCNC(=N)N)C(=O)N[C@@H](CCCCN)C(=O)N[C@@H](CC(N)=O)C(=O)N[C@@H](Cc3ccccc3)C(=O)N[C@H](C(=O)N3CCC[C@H]3C(=O)N[C@H](C(=O)N[C@@H](CC(=O)O)C(=O)N[C@H](C(=O)NCC(=O)N3CCC[C@H]3C(=O)N[C@@H](Cc3ccccc3)C(=O)N[C@@H](C)C(=O)N[C@@H](Cc3ccccc3)C(N)=O)C(C)C)[C@@H](C)O)C(C)C)C(C)C)C(C)C)NC(=O)[C@H](CCCNC(N)=O)NC(=O)[C@H](CO)NC(=O)[C@H](CC(C)C)NC2=O)NC(=O)[C@H](CC(C)C)NC(=O)[C@H](CCCNC(=N)N)NC(=O)[C@H](Cc2c[nH]cn2)NC1=O)C(C)C [compound 902] |
| 0.83 | CC(=O)N[C@@H](Cc1c[nH]c2ccccc12)C(=O)N[C@H](C(=O)N[C@H]1CCC(=O)NCCCC[C@@H](C(=O)NCC(=O)N[C@@H](CC(C)C)C(=O)N[C@@H](CC(C)C)C(=O)N[C@@H](CO)C(=O)N[C@@H](CCCNC(N)=O)C(=O)N[C@@H](CO)C(=O)NCC(=O)NCC(=O)N[C@H](C(=O)N[C@H](C(=O)N[C@@H](CCCCNC(=N)N)C(=O)N[C@@H](CCCCN)C(=O)N[C@@H](CC(N)=O)C(=O)N[C@@H](Cc2ccccc2)C(=O)N[C@H](C(=O)N2CCC[C@H]2C(=O)N[C@H](C(=O)N[C@@H](CC(=O)O)C(=O)N[C@H](C(=O)NCC(=O)N2CCC[C@H]2C(=O)N[C@@H](Cc2ccccc2)C(=O)N[C@@H](C)C(=O)N[C@@H](Cc2ccccc2)C(N)=O)C(C)C)[C@@H](C)O)C(C)C)C(C)C)C(C)C)NC(=O)[C@H](CC(C)C)NC(=O)[C@H](CCCNC(N)=O)NC(=O)[C@H](Cc2c[nH]cn2)NC1=O)C(C)C [compound 907] (Ac-WVEH[Cit]LKGLLS[Cit]SGGVV[hArg]KNFVPTDVGPFAF-NH2; lactam 3-7) |
| 1.28 | CC(=O)N[C@@H](Cc1c[nH]c2ccccc12)C(=O)N[C@H](C(=O)N[C@H]1CCC(=O)NCCCC[C@@H](C(=O)NCC(=O)N[C@@H](CC(C)C)C(=O)N[C@@H](CC(C)C)C(=O)N[C@@H](CO)C(=O)N[C@@H](CCCNC(N)=O)C(=O)N[C@@H](CO)C(=O)NCC(=O)NCC(=O)N[C@H](C(=O)N[C@H](C(=O)N[C@@H](CCCCNC(=N)N)C(=O)N[C@@H](CCCCN)C(=O)N[C@@H](CC(N)=O)C(=O)N[C@@H](Cc2ccccc2)C(=O)N[C@H](C(=O)N2CCC[C@H]2C(=O)N[C@H](C(=O)N[C@@H](CC(=O)O)C(=O)N[C@H](C(=O)NCC(=O)N2CCC[C@H]2C(=O)N[C@@H](Cc2ccccc2)C(=O)N[C@@H](C)C(=O)N[C@@H](Cc2ccccc2)C(N)=O)C(C)C)[C@@H](C)O)C(C)C)C(C)C)C(C)C)NC(=O)[C@H](CC(C)C)NC(=O)[C@H](CCCCNC(=N)N)NC(=O)[C@H](Cc2c[nH]cn2)NC1=O)C(C)C [compound 908] (Ac-WVEH[hArg]LKGLLS[Cit]SGGVV[hArg]KNFVPTDVGPFAF-NH2; lactam 3-7) |
